Columns and labels:
patients = settings: monotherapy; cited from earlier work
in vivo = settings: male, C57 black, mouse, ip
Procedure: (§1) The study was conducted on male Swiss albino mice (CD-1) weighing 18-26 g. All procedures were carried out in accordance with applicable Polish and international guidelines on the ethics of animal testing, after obtaining appropriate institutional approval. […] These studies were carried out on individuals of male C57 black mice (Charles River) and individuals of male Sprague-Dawley rats. All tests were carried out based on the procedures described in the specialist literature.
(§2) These studies were also carried out in rats according to the methodology described by ETSP. The toxic dose (TD50) in the rotarod test was estimated based on the results obtained in 3-4 groups of animals consisting of at least 6 individuals.
(§3) To perform a statistical evaluation of the results, one-way analysis of variance (ANOVA) followed by Dunnett's post hoc test (multiple comparison test) were used. The values were considered statistically significant if p<0.05.

mice [1] = assay: streptozotocin-induced model of painful diabetic neuropathy, von Frey test; format: in vivo, mouse; settings: 3 weeks after streptozotocin
Procedure: as §1, with “literature. […] The study group consisted of 8-10 animals. […] To perform a statistical evaluation of the results, one-way analysis of variance (ANOVA) followed by Dunnett's post hoc test (multiple comparison test) were used. The values were considered statistically significant if p<0.05.” for “literature.”

HEK-293 cell line = assay: cytotoxic activity, MTS test; settings: 72 hours incubation, concentration range 1-100 μM
CYP2C9 = CYP2C9 (Homo sapiens, UniProt P11712); settings: 10 μM
Procedure: (§4) The studies were conducted using commercial luminescence tests CYP3A4 P450-Glo™, CYP2D6 P450-Glo™ and CYP2C9 P450-Glo™ from Promega (Madison, WI, USA).
(§5) The studies were conducted using commercial luminescence tests CYP3A4 P450-Glo™, CYP2D6 P450-Glo™ and CYP2C9 P450-Glo™ from Promega (Madison, WI, USA). The CYP isoforms selected for study are responsible for the metabolism of approximately 60-70% of the drugs available and their stimulation or inhibition determines the majority of metabolic drug interactions.

mice [2] = assay: forced swim test (Porsolt test); format: in vivo, mouse; settings: 30, 45 and 60 mg/kg i.p.; vs vehicle control
Procedure: as §1, with “literature. […] The study group consisted of 8-10 animals. […] To perform a statistical evaluation of the results, one-way analysis of variance (ANOVA) followed by Dunnett's post hoc test (multiple comparison test) were used. The values were considered statistically significant if p<0.05.” for “literature.”

mice [3] = assay: oxaliplatin-induced neuropathic pain model, von Frey test; format: in vivo, mouse
Procedure: as §1, with “literature. […] The study group consisted of 8-10 animals. […] To perform a statistical evaluation of the results, one-way analysis of variance (ANOVA) followed by Dunnett's post hoc test (multiple comparison test) were used. The values were considered statistically significant if p<0.05.” for “literature.”

Sprague-Dawley rats [4] = assay: MES test in rats, ETSP; format: in vivo; settings: Rattus norvegicus, ip, 0.5 h, i.p., tested 30 min after administration, 95% confidence limits in brackets
Procedure: as §1
(§6) Screening was performed on groups of 4-8 mice or 4-8 rats. The median effective dose (ED50) in a given test was estimated based on the results obtained in 3-4 groups of animals consisting of at least 6 individuals.
as §3

mice [5] = assay: spontaneous locomotor activity test; format: in vivo, mouse
Procedure: The assessment of the influence of the tested compounds on the spontaneous locomotor activity of animals (assessment of the sedative or activating effect) was carried out in accordance with the methodology described in the scientific literature (Mogilski et al. Inflamm. Res. 2017, 66, 79-95). The study group consisted of 10 animals.

CYP2D6 = target: T1, CYP2D6 (Homo sapiens, UniProt P10635); assay: CYP2D6 P450-Glo luminescence test; format: in vitro ADME; settings: 10 μM
T1 construct: purchased Promega (Madison, WI, USA)
Procedure: as §4, §5

HaCaT cells = assay: cytotoxic activity, MTT assay; format: cell-based; settings: Homo sapiens, 72 hours incubation, mean ± SD
Text: MTT assay. […] The IC50 value was estimated using CompuSyn version 1.0.

human liver microsomes = assay: metabolic stability in human liver microsomes; format: in vitro ADME; settings: 120 minutes incubation, NADPH cofactor
Procedure: The metabolic stability study was performed using human liver microsomes purchased from Sigma-Aldrich (St. Louis, MO, USA).

Sprague-Dawley rats [6] = assay: lamotrigine resistant amygdala kindled seizure model; format: in vivo, rat; settings: 70 mg/kg i.p., 30 min, 5 rats tested
Procedure: as §1, §6

[7] = test system: black C57 mice (Charles River); assay: corneal kindled seizure model, ETSP; format: in vivo; settings: Mus musculus, ip, 1 h, i.p., tested 60 min after administration
Procedure: as §1, §6, §3

mice [8] = assay: neuroprotection in pilocarpine-induced status epilepticus (Fluoro-Jade B); settings: PILO 300 mg/kg i.p.; dose of compound determined in the 6 Hz (32 mA) test; five mice shown (B-F)
mice [9] = assay: formalin test; format: in vivo, mouse; settings: vs vehicle control
Procedure: as §1, with “literature. […] The study group consisted of 8-10 animals. […] To perform a statistical evaluation of the results, one-way analysis of variance (ANOVA) followed by Dunnett's post hoc test (multiple comparison test) were used. The values were considered statistically significant if p<0.05.” for “literature.”

HepG2 cell line = assay: hepatotoxicity, MTS test; settings: 72 hours incubation, concentration range 1-100 μM
[10] = test system: neurons derived from human neuroblastoma SH-SY5Y cells; assay: neurotrophic activity on human neurons, MTT test; settings: 48 hours; for viability of human neurons under standard conditions: 0.1 to 100 μg/ml; for concentrations from which the compound acted trophically (eliminating the effect of lack of B27 supplement): trophic stress (B27 removed)
[11] = test system: black C57 mice (Charles River); assay: 6 Hz (44 mA) test, ETSP; format: in vivo; settings: Mus musculus, ip, 1 h, i.p., tested 60 min after administration
Procedure: as §1, §6, §3

mice [12] = assay: four plates test (Aron test); format: in vivo, mouse; settings: vs vehicle control
Procedure: as §1, with “literature. […] The study group consisted of 8-10 animals. […] To perform a statistical evaluation of the results, one-way analysis of variance (ANOVA) followed by Dunnett's post hoc test (multiple comparison test) were used. The values were considered statistically significant if p<0.05.” for “literature.”

CYP3A4 = target: T2, CYP3A4 (Homo sapiens, UniProt P08684); assay: CYP3A4 P450-Glo luminescence test; format: in vitro ADME; settings: 10 μM
T2 construct: purchased Promega (Madison, WI, USA)
Procedure: as §4, §5

Swiss albino mice (CD-1) [13] = settings: i.p., CD-1 mice, 30 min; racemates, disclosed in publications; cited from earlier work
Swiss albino mice (CD-1) [14] = assay: 6 Hz (44 mA) psychomotor seizure test; format: in vivo; settings: Mus musculus, ip, 0.5 h; i.p., CD-1 mice, tested 30 min after administration
[15] = rotarod test (motor coordination); settings: male, Swiss albino (CD-1), mouse, in vivo, ip
Procedure: as §1, §2, §3

Swiss albino mice (CD-1) [16] = settings: i.p., CD-1 mice, 30 min; racemates, disclosed in publications; cited from earlier work; remark: listed apart in the source

CCC1(c2ccccc2)C(=O)NC(=O)NC1=O [phenobarbital]
sedative effect, share of patients (patients): approx. 39 % of patients

C[C@H](C(=O)NCc1ccccc1)N1C(=O)CCC1=O [Compound 1, (2R)—N-benzyl-2-(2,5-dioxopyrrolidin-1-yl)propanamide]
TD50 at 60 min (in vivo): > 150 mg/kg | pain threshold (mechanical stimulus) (mice [1]; 90 mg/kg i.p.): increased the pain threshold to the values observed before the induction of streptozotocin diabetes | pain threshold (mechanical stimulus) (mice [1]; 30, 60 and 90 mg/kg i.p., vs measurement before compound): led to an increase in the pain threshold in a statistically significant and dose-dependent manner | effect on cell viability (HEK-293 cell line): did not show a statistically significant effect | effect on CYP2C9 activity (CYP2C9): small, statistically significant (p<0.05) inhibition | immobility time (mice [2]): statistically significantly shortened the immobility time | pain threshold (mechanical stimulus) (mice [3]; 30 mg/kg i.p.): increased the pain threshold only in the early phase | pain threshold (mechanical stimulus) (mice [3]; 60 mg/kg and 90 mg/kg i.p., early (3 h) and late (7 days) phase, vs measurement before compound): led to an increase in pain threshold at a dose-dependent manner | ED50 (Sprague-Dawley rats [4]): 34.9 mg/kg | number of light beams interruptions during 30 minutes (spontaneous locomotor activity) (mice [5]; 30, 60 and 90 mg/kg i.p.): statistically significantly increased the number of light beams interruptions | effect on CYP2D6 activity (CYP2D6): no effect | IC50 (HaCaT cells): 239.8 ± 0.6 µM | metabolites on UPLC chromatogram of reaction mixture (human liver microsomes): no metabolites appeared | Number of protected rats (Sprague-Dawley rats [6]): Number of protected rats: 3 | protection (Sprague-Dawley rats [6]): (protection—60%) | ED50 [7]: 38.1 mg/kg | neuroprotective effect after PILO-induced SE (neurodegenerative changes) (mice [8]): a protective effect was obtained for four mice | nociceptive response time, second phase (tonic inflammatory pain) (mice [9]; i.p., 30, 60 and 90 mg/kg): statistically significantly shortened the time of nociceptive response | nociceptive response time, first phase (acute pain) (mice [9]; i.p., all doses, statistically significant at 60 and 90 mg/kg): reduced the nociceptive response time | effect on cell viability (HepG2 cell line): did not show a statistically significant effect | viability of human neurons under standard conditions [10]: did not affect the viability | concentrations from which the compound acted trophically (eliminating the effect of lack of B27 supplement) [10]: ≥ 1 µg/mL | ED50 [11]: 69.9 mg/kg | number of electrically punished plate crossings (mice [12]; 30 mg/kg i.p.): did not result in a statistically significant difference | number of electrically punished plate crossings (mice [12]; 60 mg/kg and 90 mg/kg i.p.): statistically significantly increased the number of electrically punished plate crossings | effect on CYP3A4 activity (CYP3A4): no effect

NCC1(CC(=O)O)CCCCC1 [gabapentin]
sedative effect, share of patients (patients): approx. 9 % of patients

CC(C(=O)NCc1ccccc1)N1C(=O)CCC1=O (racemic) [(RS)-1, (2RS)—N-benzyl-2-(2,5-dioxopyrrolidin-1-yl)propenamide]
ED50 6 Hz (44 mA) (Swiss albino mice (CD-1) [13]): 75.41 mg/kg

COc1cccc2c1C(=O)c1c(O)c3c(c(O)c1C2=O)C[C@@](O)(C(=O)CO)C[C@@H]3O[C@H]1C[C@H](N)[C@H](O)[C@H](C)O1 [Doxorubicin, reference compound]
IC50 (HaCaT cells): 0.23 ± 0.03 µM

Nc1nnc(-c2cccc(Cl)c2Cl)c(N)n1 [lamotrigine]
sedative effect, share of patients (patients): approx. 10 % of patients

C[C@H](C(=O)NCc1ccccc1F)N1C(=O)CCC1=O [Compound 2, (2R)-2-(2,5-dioxopyrrolidin-1-yl)-N-(2-fluorobenzyl)propanamide]
spontaneous locomotor activity (mice [5]; 90 mg/kg i.p.): statistically significant increase in spontaneous locomotor activity | ED50 (Swiss albino mice (CD-1) [14]): 37.2 mg/kg | TD50 at 30 min [15]: 299 mg/kg | viability of human neurons under standard conditions [10]: did not affect the viability | concentrations from which the compound acted trophically (eliminating the effect of lack of B27 supplement) [10]: ≥ 0.1 µg/mL

O=C1NC(=O)C(c2ccccc2)(c2ccccc2)N1 [phenytoin]
sedative effect, share of patients (patients): approx. 32 % of patients

CC(C(=O)NCc1ccccc1F)N1C(=O)CCC1=O (racemic) [(RS)-2, (2RS)-2-(2,5-dioxopyrrolidin-1-yl)-N-(2-fluorobenzyl)propanamide]
TD50 Rotarod test (Swiss albino mice (CD-1) [16]): 300.9 mg/kg

CC[C@@H](C(N)=O)N1CCCC1=O [levetiracetam]
sedative effect, share of patients (patients): approx. 20 % of patients
